This test has as its system BDF1 mice, intracerebral L1210 leukemia, survival T/C. Put plainly: NCI In Vivo Anticancer Drug Screen. Data for tumor model L1210 Leukemia (intracerebral) in B6D2F1 (BDF1) mice. The following applies: higher = longer survival. Summed up: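 Readout is the T/C ratio: survival of compound-treated animals over that of vehicle-treated controls, in mice bearing transplantable tumour.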

Structures are written as SMILES. Several values for one entry are separate records, joined by “and”; a condition that tells them apart may be missing. Equal values may be shown once. Toxic doses and inconclusive results are not listed.

Take `O=c1[nH]cc(N(CCCl)CCCl)c(=O)[nH]1`: the T/C was 114 % of control (endpoint: mean survival time, dose: 0.75 mg/kg/injection, schedule: Q01DX015 (ip), vehicle: carboxymethylcellulose (CMC)); 123 % of control (endpoint: mean survival time, dose: 1.1 mg/kg/injection, schedule: Q01DX015 (ip), vehicle: carboxymethylcellulose (CMC)); 106 % of control (endpoint: mean survival time, dose: 1.5 mg/kg/injection, schedule: Q01DX001 (ip), vehicle: carboxymethylcellulose (CMC)); 111 % of control (endpoint: mean survival time, dose: 2.4 mg/kg/injection, schedule: Q01DX001 (ip), vehicle: carboxymethylcellulose (CMC)); 102 % of control (endpoint: mean survival time, dose: 3.6 mg/kg/injection, schedule: Q01DX001 (ip), vehicle: carboxymethylcellulose (CMC)).
In the case of `CN(C)C(=O)c1ccc(NC(=O)N(CCCl)N=O)cc1`, the T/C was 110 % of control (endpoint: mean survival time, dose: 8.0 mg/kg/injection, schedule: Q01DX001 (ip), vehicle: other) and 121 % of control (endpoint: mean survival time, dose: 24.0 mg/kg/injection, schedule: Q01DX001 (ip), vehicle: other).
As for `CN(C)CC(=O)c1ccc(O)c(O)c1`, the T/C by setting is: (endpoint: median survival time, dose: 100.0 mg/kg/injection, schedule: Q01DX005 (ip), vehicle: saline) 101 % of control; (endpoint: median survival time, dose: 200.0 mg/kg/injection, schedule: Q01DX005 (ip), vehicle: saline) 101 % of control; (endpoint: median survival time, dose: 400.0 mg/kg/injection, schedule: Q01DX005 (ip), vehicle: saline) 98 % of control; (endpoint: median survival time, dose: 800.0 mg/kg/injection, schedule: Q01DX005 (ip), vehicle: saline) 113 % of control.
On to `O=NN(CCCl)C(=O)NC1CCCCC1`, for which the T/C was 101 % of control (endpoint: mean survival time, dose: 1.0 mg/kg/injection, schedule: Q01DX001 (ip), vehicle: saline); 91 % of control (endpoint: mean survival time, dose: 1.0 mg/kg/injection, schedule: Q01DX001 (oral), vehicle: saline); 103 % of control and 116 % of control (endpoint: mean survival time, dose: 1.0 mg/kg/injection, schedule: Q01DX Z (ip), vehicle: carboxymethylcellulose (CMC)); 106 % of control (endpoint: mean survival time, dose: 2.0 mg/kg/injection, schedule: Q01DX009 (ip), vehicle: carboxymethylcellulose (CMC)); 104 % of control and 108 % of control (endpoint: mean survival time, dose: 2.0 mg/kg/injection, schedule: Q01DX Z (ip), vehicle: carboxymethylcellulose (CMC)); 118 % of control (endpoint: mean survival time, dose: 4.0 mg/kg/injection, schedule: Q01DX Z (ip), vehicle: carboxymethylcellulose (CMC)). Also, the T/C runs as follows: (endpoint: mean survival time, dose: 5.0 mg/kg/injection, schedule: Q01DX001 (ip), vehicle: carboxymethylcellulose (CMC)) 115 % of control; (endpoint: mean survival time, dose: 5.1 mg/kg/injection, schedule: Q01DX001 (ip), vehicle: carboxymethylcellulose (CMC)) 111 % of control and 120 % of control; (endpoint: mean survival time, dose: 8.0 mg/kg/injection, schedule: Q01DX009 (ip), vehicle: carboxymethylcellulose (CMC)) 212 % of control; (endpoint: mean survival time, dose: 8.0 mg/kg/injection, schedule: Q01DX Z (ip), vehicle: carboxymethylcellulose (CMC)) 202 % of control; (endpoint: mean survival time, dose: 10.0 mg/kg/injection, schedule: Q01DX001 (ip), vehicle: saline) 113 % of control; (endpoint: mean survival time, dose: 10.0 mg/kg/injection, schedule: Q01DX001 (oral), vehicle: saline) 115 % of control. In addition, the T/C was 213 % of control (endpoint: mean survival time, dose: 12.0 mg/kg/injection, schedule: Q01DX Z (ip), vehicle: carboxymethylcellulose (CMC)); 166 % of control and 176 % of control (endpoint: mean survival time, dose: 12.5 mg/kg/injection, schedule: Q01DX001 (ip), vehicle: carboxymethylcellulose (CMC)); 114 % of control and 122 % of control (endpoint: mean survival time, dose: 14.0 mg/kg/injection, schedule: Q01DX001 (ip), vehicle: carboxymethylcellulose (CMC)); 302 % of control (endpoint: mean survival time, dose: 16.0 mg/kg/injection, schedule: Q01DX009 (ip), vehicle: carboxymethylcellulose (CMC)); 152 % of control and 162 % of control (endpoint: mean survival time, dose: 16.0 mg/kg/injection, schedule: Q01DX Z (ip), vehicle: carboxymethylcellulose (CMC)); 292 % of control (endpoint: mean survival time, dose: 20.0 mg/kg/injection, schedule: Q01DX001 (ip), vehicle: carboxymethylcellulose (CMC)). Further, the T/C was 266 % of control and 288 % of control and 339 % of control (endpoint: mean survival time, dose: 24.25 mg/kg/injection, schedule: Q01DX001 (oral), vehicle: carboxymethylcellulose (CMC)); 231 % of control (endpoint: mean survival time, dose: 25.0 mg/kg/injection, schedule: Q01DX001 (ip), vehicle: saline); 243 % of control (endpoint: mean survival time, dose: 25.0 mg/kg/injection, schedule: Q01DX001 (oral), vehicle: saline); 240 % of control and 321 % of control (endpoint: mean survival time, dose: 30.0 mg/kg/injection, schedule: Q01DX001 (ip), vehicle: carboxymethylcellulose (CMC)); 322 % of control (endpoint: mean survival time, dose: 30.0 mg/kg/injection, schedule: Q01DX001 (ip), vehicle: saline); 152 % of control (endpoint: mean survival time, dose: 31.0 mg/kg/injection, schedule: Q01DX Z (ip), vehicle: carboxymethylcellulose (CMC)). The T/C is 165 % of control and 246 % of control (endpoint: mean survival time, dose: 32.0 mg/kg/injection, schedule: Q01DX001 (ip), vehicle: carboxymethylcellulose (CMC)); 459 % of control (endpoint: mean survival time, dose: 33.0 mg/kg/injection, schedule: Q01DX001 (ip), vehicle: carboxymethylcellulose (CMC)); 277 % of control (endpoint: mean survival time, dose: 36.0 mg/kg/injection, schedule: Q01DX001 (ip), vehicle: carboxymethylcellulose (CMC)); 269 % of control (endpoint: mean survival time, dose: 37.5 mg/kg/injection, schedule: Q01DX001 (ip), vehicle: carboxymethylcellulose (CMC)); 240 % of control (endpoint: mean survival time, dose: 40.0 mg/kg/injection, schedule: Q01DX001 (ip), vehicle: saline); 481 % of control and 731 % of control (endpoint: mean survival time, dose: 43.0 mg/kg/injection, schedule: Q01DX001 (ip), vehicle: carboxymethylcellulose (CMC)). The T/C is 189 % of control (endpoint: mean survival time, dose: 45.0 mg/kg/injection, schedule: Q01DX001 (ip), vehicle: carboxymethylcellulose (CMC)); 274 % of control and 306 % of control (endpoint: mean survival time, dose: 48.0 mg/kg/injection, schedule: Q01DX001 (ip), vehicle: carboxymethylcellulose (CMC)); 278 % of control and 337 % of control and 420 % of control (endpoint: mean survival time, dose: 48.5 mg/kg/injection, schedule: Q01DX001 (oral), vehicle: carboxymethylcellulose (CMC)); 218 % of control and 277 % of control (endpoint: mean survival time, dose: 50.0 mg/kg/injection, schedule: Q01DX001 (ip), vehicle: saline); 255 % of control (endpoint: mean survival time, dose: 50.0 mg/kg/injection, schedule: Q01DX001 (oral), vehicle: saline); 473 % of control (endpoint: mean survival time, dose: 55.0 mg/kg/injection, schedule: Q01DX001 (ip), vehicle: carboxymethylcellulose (CMC)). The T/C reads like this: (endpoint: mean survival time, dose: 60.0 mg/kg/injection, schedule: Q01DX001 (ip), vehicle: carboxymethylcellulose (CMC)) 359 % of control and 414 % of control and 463 % of control; (endpoint: mean survival time, dose: 60.0 mg/kg/injection, schedule: Q01DX001 (ip), vehicle: saline) 227 % of control; (endpoint: mean survival time, dose: 62.0 mg/kg/injection, schedule: Q01DX Z (ip), vehicle: carboxymethylcellulose (CMC)) 91 % of control and 94 % of control; (endpoint: mean survival time, dose: 70.0 mg/kg/injection, schedule: Q01DX001 (ip), vehicle: carboxymethylcellulose (CMC)) 267 % of control; (endpoint: mean survival time, dose: 70.0 mg/kg/injection, schedule: Q01DX001 (ip), vehicle: saline) 109 % of control; (endpoint: mean survival time, dose: 72.0 mg/kg/injection, schedule: Q01DX001 (ip), vehicle: carboxymethylcellulose (CMC)) 208 % of control and 284 % of control and 293 % of control. Further, the T/C is, setting by setting: (endpoint: mean survival time, dose: 75.0 mg/kg/injection, schedule: Q01DX001 (ip), vehicle: carboxymethylcellulose (CMC)) 294 % of control; (endpoint: mean survival time, dose: 75.0 mg/kg/injection, schedule: Q01DX001 (ip), vehicle: saline) 276 % of control; (endpoint: mean survival time, dose: 75.0 mg/kg/injection, schedule: Q01DX001 (oral), vehicle: saline) 208 % of control; (endpoint: mean survival time, dose: 80.0 mg/kg/injection, schedule: Q01DX001 (ip), vehicle: carboxymethylcellulose (CMC)) 184 % of control; (endpoint: mean survival time, dose: 86.0 mg/kg/injection, schedule: Q01DX001 (ip), vehicle: carboxymethylcellulose (CMC)) 184 % of control and 211 % of control; (endpoint: mean survival time, dose: 97.0 mg/kg/injection, schedule: Q01DX001 (oral), vehicle: carboxymethylcellulose (CMC)) 120 % of control and 122 % of control. Besides, the T/C is 103 % of control (endpoint: mean survival time, dose: 100.0 mg/kg/injection, schedule: Q01DX001 (ip), vehicle: carboxymethylcellulose (CMC)); 89 % of control (endpoint: mean survival time, dose: 100.0 mg/kg/injection, schedule: Q01DX001 (ip), vehicle: saline); 102 % of control (endpoint: mean survival time, dose: 100.0 mg/kg/injection, schedule: Q01DX001 (oral), vehicle: saline).
For the compound `O=NN(CCCl)C(=O)NC1CS(=O)(=O)CS(=O)(=O)C1`, the T/C was 118 % of control (endpoint: mean survival time, dose: 11.0 mg/kg/injection, schedule: Q01DX001 (ip), vehicle: other); 117 % of control (endpoint: mean survival time, dose: 17.0 mg/kg/injection, schedule: Q01DX001 (ip), vehicle: other); 119 % of control (endpoint: mean survival time, dose: 56.0 mg/kg/injection, schedule: Q01DX001 (ip), vehicle: other).
Consider `NCCCCS(=O)(=O)Nc1ccc(Nc2c3ccccc3nc3cc([N+](=O)[O-])ccc23)cc1`, for which the T/C (endpoint: mean survival time, dose: 25.0 mg/kg/injection, schedule: Q01DX009 (ip), vehicle: saline) is 97 % of control and the T/C (endpoint: mean survival time, dose: 50.0 mg/kg/injection, schedule: Q01DX009 (ip), vehicle: saline) is 99 % of control.

Source of the values: PubChem BioAssay AID252 (DTP/NCI, 2004).
